Results from US8912173B2, “Substituted quinolines and their use as medicaments” (Boehringer Ingelheim International GmbH, priority 2011, dated 2014).
Read-outs that look alike come from different tables or passages of the source.

Tests used:
[1] = target: Recombinant human Syk (amino acids 342-635), GST-Syk kinase fusion protein (Homo sapiens (Human), UniProt P43405); assay: Syk Kinase Test (Kinase Glo Luminescence Kinase test)
Experimental: The catalytic activity of the GST-Syk kinase fusion protein was determined using the Kinase Glo® Luminescence Kinase test (Promega; V6712). In this homogeneous test the amount of ATP remaining after the kinase reaction is quantified by a luciferin-luciferase reaction using luminescence. The luminescence signal obtained correlates with the amount of ATP still present and thus correlates inversely with the activity of the protein kinase.
GST-Syk was diluted to 6.0 nM in the test buffer and 10 μl of this dilution were used in the kinase test (final concentration of Syk=4 nM in a total volume of 15 μl).
Positive controls are the reaction mixtures that contain no test substance; negative controls (blanks) are reaction mixtures that contain no kinase.
After 60 minutes, 10 μl Kinase-Glo® solution (Promega, Cat. #V6712) (heated to room temperature) were added to each well and incubation was continued for a further 15 minutes. The plates were read in a Microplate Scintillation and Luminescence Counter (Canberra Packard GmbH).
Data Evaluation and Calculation:
The output file of the “Counter” is a text file that contains the well number and measured counts in two columns. […] Based on this values the % inherent value for the measurement of each substance concentration was calculated using an “MS-Excel-VB macro”. […] The IC50 values were calculated from the % inhibition values using “GraphPadPrism” software (Version 5) (GraphPad Software Inc.).

patients with ITP = details: single center open label study; cited from earlier work
[2] = read-out: IC50-value (+0.2% HSA in μM), +0.2% HSA

Structure (SMILES) | IC50 [1, 2] [µM] | also measured
C[C@@H](Oc1cc(-c2ccccn2)cc2ncccc12)[C@H]1CNC(=O)C1 [Example 6, (R)-4-((R)-1-(7-(pyridin-2-yl)quinolin-5-yloxy)ethyl)pyrrolidin-2-one] |  | IC50 ([1]; read-out: IC50-value (+0.2% BSA in μM), +0.2% BSA): 0.0017 µM
Cc1nc2ccc(-c3cc(O[C@H](C)[C@H]4CNC(=O)C4)c4cccnc4c3)cc2s1 [Example 85, (R)-4-((R)-1-(7-(2-methylbenzo[d]thiazol-6-yl)quinolin-5-yloxy)ethyl)pyrrolidin-2-one] | 0.0002 | 
C[C@@H](Oc1cc(-c2ccc3c(c2)ncn3C)cc2ncccc12)[C@H]1CNC(=O)C1 [Example 94, (R)-4-((R)-1-(7-(1-methyl-1H-benzo[d]imidazol-5-yl)quinolin-5-yloxy)ethyl)pyrrolidin-2-one] | 0.0003 | 
C[C@@H](Oc1cc(-c2ccc3c(c2)CNCC3)cc2ncccc12)[C@H]1CNC(=O)C1 [Example 101, (R)-4-((R)-1-(7-(1,2,3,4-tetrahydroisoquinolin-7-yl)quinolin-5-yloxy)ethyl)pyrrolidin-2-one] | 0.0004 | 
COc1cc(-c2cc(O[C@H](C)[C@H]3CNC(=O)C3)c3cccnc3c2)ccc1C(F)(F)F [Example 102, (R)-4-((R)-1-(7-(3-methoxy-4-(trifluoromethyl)phenyl)quinolin-5-yloxy)ethyl)pyrrolidin-2-one] | 0.0045 | 
Cc1nc2cc(-c3cc(O[C@H](C)[C@H]4CNC(=O)C4)c4cccnc4c3)ccc2n1C [Example 105, (R)-4-((R)-1-(7-(1,2-dimethyl-1H-benzo[d]imidazol-5-yl)quinolin-5-yloxy)ethyl)pyrrolidin-2-one] | 0.0002 | 
Cc1nc2cc(-c3cc(O[C@H](C)[C@H]4CNC(=O)C4)c4cccnc4c3)ccc2[nH]1 [Example 109, (R)-4-((R)-1-(7-(2-methyl-1H-benzo[d]imidazol-5-yl)quinolin-5-yloxy)ethyl)pyrrolidin-2-one] | 0.0004 | 
Cc1c(-c2cc(O[C@H](C)[C@H]3CNC(=O)C3)c3cccnc3c2)cnn1C [Example 112, (R)-4-((R)-1-(7-(1,5-dimethyl-1H-pyrazol-4-yl)quinolin-5-yloxy)ethyl)pyrrolidin-2-one] | 0.0012 | 
COc1cc(Nc2ncc(F)c(Nc3ccc4c(n3)N(COP(=O)(O)O)C(=O)C(C)(C)O4)n2)cc(OC)c1OC [Example R788] |  | platelet counts (patients with ITP): improved platelet counts
